Experimental data: patent US7338669B2, “Inorganic boranophosphate salts” (Bar-Ilan University, priority 2005, dated 2008)
Values belong to the compound of their own block, whether it stands above or below them.

Key:
[1] = Stability of BPi towards selected organic and inorganic reagents (31P NMR); format: physicochemical
Description: The reactivity of BPi towards various organic and inorganic reagents was explored as part of the characterization of BPi's chemical nature. These reagents include: aqueous acid solution, nitrile, amide, carbodiimide, pyridine and imidazole, tosyl chloride, phosphorous oxychloride, H2, and Zn^2+ and Mg^2+ ions.
Although BH3, in complexes with a variety of sulfur/amine/oxygen compounds, is an efficient reducing agent, its reducing nature is drastically altered in Bpi. For instance, while hydrid transfer from “BH3” to water occurs readily, the BH3 moiety in BPi transfers hydride only in a highly acidic solution (pH<2). Likewise, while BH3.
A carbodiimide reagent is used for the condensations of phosphate to provide the corresponding phosphoric anhydride. […] This finding is in contrast to diethylphosphite (cyano- or methoxycarbonyl)borane analogues, which are stable to dicyclohexylecarbodiimide (DCC) (Vyakaranam et al., 2002).
The reactivity of BPi with imidazole and pyridine was studied. […] The reaction of 5′-DMT-2′-deoxy-thymidine with tetramethyl boranopyrophosphate in the presence of N-methylimidazole was reported to proceed with the partial removal of the borane group. Likewise, when pyridine was used as a solvent, partial removal of the borane group was observed (Wada et al., 2002).
The presence of divalent metal ions such as Zn^2+ and Mg^2+ in DMF and water for 48 h and 4 h, respectively, left BPi unchanged.

[2] = Procedure: The ^31P NMR chemical shift was monitored as a function of the pH. A five-parameter sigmoid function was fitted to the data using Sigma Plot 2000 (SPSS, Inc.): δ=δ0+a/[1+e^−((pH-pH0)/b)]^c The inflection point, which is determined by the second derivative of the fitted sigmoid function, is the pKa value.
The acid-base character of BPi was studied by ^31P NMR—monitored pH-titration, as described in Experimental, (v).

[3] = Solubility of BPi salts in water and organic solvents; format: physicochemical
[4] = comparison value quoted in the text; cited from earlier work
[5] = Stability / decomposition rate of BPi in aqueous solution at different pH, monitored by 31P NMR; format: physicochemical
Procedure: The decomposition rate was determined by measuring changes in the integration of the respective NMR signals within 96 h.
BPi is stable in neutral and basic solutions.
The borane reacts with water to liberate hydrogen gas and boric acid.

degraded to phosphorus acid (P—B bond cleavage) ([1]; excess EDC, water pH 6.5, 37° C., 4 h, 31P NMR): 72% | pKa (first inflection point) [2]: 7.12 | pKa (second inflection point) [2]: 12.54
Compound: Ammonium Boranophosphate [Compound 2a]

Compound: Tributylammonium Boranophosphate [Compound 2b]
solubility in organic solvents ([3]; organic solvents such as MeOH, CH3CN, DMF, CHCl3): dissolves only in organic solvents

Compound: O=[PH](O)O [phosphorus acid]
pKa, higher of the two comparison values [4]: 6.2 | pKa, lower of the two comparison values (phosphoric acid: second protonation equilibrium) [4]: 1.8

stability with imidazole ([1]; 2 or 10 equiv. imidazole in CD3OD, 96 h, 31P NMR): remained unchanged | stability with divalent metal ions ([1]; Zn^2+ and Mg^2+ in DMF and water for 48 h and 4 h, respectively): unchanged | stability in acetonitrile and dimethyl formamide ([1]; acetonitrile and dimethyl formamide solutions, no reduction of the solvent): complete stability | stability in pyridine ([1]; solution in pyridine, 113 h): negligible cleavage of the P—B bond | water solubility ([3]; in water): high water solubility | stability in neutral and basic solutions ([5]; neutral and basic solutions): stable | t1/2 of degradation to phosphorus acid ([5]; pH 2, room temperature, 31P NMR): 11.5 days | rate of degradation to phosphorus acid ([5]; pH 2, room temperature, 31P NMR, R^2=1.00): 7e-07 s⁻¹ | degradation observed by 31P NMR ([5]; pH 13.7, 48 h, room temperature): no degradation | behaviour under highly acidic conditions ([5]; pH<2, H2 evolved, boric acid and phosphorus acid formed): the P—B bond is cleaved | stability in acidic solution ([5]; pH>2): relatively stable
Compound: inorganic boranophosphate [BPi]
